Laboratory results reported in patent publication US20090304692A1, “TRIAZINE COMPOUNDS AS PI3 KINASE AND MTOR INHIBITORS” (Wyeth, priority 2008, published 2009).
Read-outs that look alike come from different tables or passages of the source.

Experiments:
[1] = test system: human prostate PC3-mm2 tumor cell line; assay: In vitro cell culture growth assay (MTS), PC3-mm2; type: cell-based; conditions: Homo sapiens, PC3MM2, 72 h, MTS cell growth assay, three days after drug treatment, PC3-mm2 cells; read-out: IC50 PC3-mm2
Human mTOR (FLAG-TOR) = Human mTOR (FLAG-TOR) (Homo sapiens, UniProt P42345); assay: mTOR kinase assay (DELFIA format, purified enzyme); type: biochemical; conditions: read-out: IC50 mTOR
PI3K-α = PI3K-α (Homo sapiens, UniProt P42336); assay: PI3K-alpha fluorescence polarization assay; conditions: read-out: IC50 PI3Kα
[2] = test system: human breast MDA-MB-361 tumor cell line; assay: In vitro cell culture growth assay (MTS), MDA-MB-361; type: cell-based; conditions: Homo sapiens, MTS cell growth assay, three days after drug treatment, MDA-MB-361 cells, read-out: IC50 MDA-MB-361
PI3K-γ = PI3K-γ (Homo sapiens, UniProt P48736); assay: PI3K-gamma fluorescence polarization assay; conditions: read-out: IC50 PI3Kγ
Sequence of PI3K-γ (P48736 whole entry, species assumed): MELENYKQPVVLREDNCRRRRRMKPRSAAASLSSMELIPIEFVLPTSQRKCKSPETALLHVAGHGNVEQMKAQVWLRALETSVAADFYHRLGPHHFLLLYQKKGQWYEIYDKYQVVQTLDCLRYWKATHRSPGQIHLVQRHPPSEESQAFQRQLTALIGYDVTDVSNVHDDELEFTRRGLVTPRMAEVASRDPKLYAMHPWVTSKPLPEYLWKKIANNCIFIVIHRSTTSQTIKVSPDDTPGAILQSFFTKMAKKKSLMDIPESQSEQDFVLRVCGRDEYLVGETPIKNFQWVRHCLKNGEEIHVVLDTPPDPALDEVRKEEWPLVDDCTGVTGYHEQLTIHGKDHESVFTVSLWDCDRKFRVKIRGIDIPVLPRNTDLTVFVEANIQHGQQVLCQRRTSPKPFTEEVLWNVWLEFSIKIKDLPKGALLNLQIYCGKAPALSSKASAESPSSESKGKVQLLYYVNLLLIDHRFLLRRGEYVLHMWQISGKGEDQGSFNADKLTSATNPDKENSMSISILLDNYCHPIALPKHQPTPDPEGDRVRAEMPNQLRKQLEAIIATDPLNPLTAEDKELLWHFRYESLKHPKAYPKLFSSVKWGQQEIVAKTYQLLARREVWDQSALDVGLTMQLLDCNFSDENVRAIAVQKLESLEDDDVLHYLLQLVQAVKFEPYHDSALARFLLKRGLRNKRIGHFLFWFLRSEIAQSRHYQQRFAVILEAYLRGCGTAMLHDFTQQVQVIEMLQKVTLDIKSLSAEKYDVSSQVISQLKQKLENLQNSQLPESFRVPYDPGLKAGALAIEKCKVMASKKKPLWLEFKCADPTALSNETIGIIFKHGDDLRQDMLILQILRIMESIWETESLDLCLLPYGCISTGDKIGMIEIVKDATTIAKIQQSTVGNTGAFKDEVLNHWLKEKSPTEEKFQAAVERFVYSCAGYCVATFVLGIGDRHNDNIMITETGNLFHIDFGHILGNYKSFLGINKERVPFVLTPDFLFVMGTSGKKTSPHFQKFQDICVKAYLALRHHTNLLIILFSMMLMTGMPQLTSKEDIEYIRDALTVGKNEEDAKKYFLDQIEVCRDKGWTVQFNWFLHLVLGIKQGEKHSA

Sequence of Human mTOR (FLAG-TOR) (P42345 1360-2549 limits assumed): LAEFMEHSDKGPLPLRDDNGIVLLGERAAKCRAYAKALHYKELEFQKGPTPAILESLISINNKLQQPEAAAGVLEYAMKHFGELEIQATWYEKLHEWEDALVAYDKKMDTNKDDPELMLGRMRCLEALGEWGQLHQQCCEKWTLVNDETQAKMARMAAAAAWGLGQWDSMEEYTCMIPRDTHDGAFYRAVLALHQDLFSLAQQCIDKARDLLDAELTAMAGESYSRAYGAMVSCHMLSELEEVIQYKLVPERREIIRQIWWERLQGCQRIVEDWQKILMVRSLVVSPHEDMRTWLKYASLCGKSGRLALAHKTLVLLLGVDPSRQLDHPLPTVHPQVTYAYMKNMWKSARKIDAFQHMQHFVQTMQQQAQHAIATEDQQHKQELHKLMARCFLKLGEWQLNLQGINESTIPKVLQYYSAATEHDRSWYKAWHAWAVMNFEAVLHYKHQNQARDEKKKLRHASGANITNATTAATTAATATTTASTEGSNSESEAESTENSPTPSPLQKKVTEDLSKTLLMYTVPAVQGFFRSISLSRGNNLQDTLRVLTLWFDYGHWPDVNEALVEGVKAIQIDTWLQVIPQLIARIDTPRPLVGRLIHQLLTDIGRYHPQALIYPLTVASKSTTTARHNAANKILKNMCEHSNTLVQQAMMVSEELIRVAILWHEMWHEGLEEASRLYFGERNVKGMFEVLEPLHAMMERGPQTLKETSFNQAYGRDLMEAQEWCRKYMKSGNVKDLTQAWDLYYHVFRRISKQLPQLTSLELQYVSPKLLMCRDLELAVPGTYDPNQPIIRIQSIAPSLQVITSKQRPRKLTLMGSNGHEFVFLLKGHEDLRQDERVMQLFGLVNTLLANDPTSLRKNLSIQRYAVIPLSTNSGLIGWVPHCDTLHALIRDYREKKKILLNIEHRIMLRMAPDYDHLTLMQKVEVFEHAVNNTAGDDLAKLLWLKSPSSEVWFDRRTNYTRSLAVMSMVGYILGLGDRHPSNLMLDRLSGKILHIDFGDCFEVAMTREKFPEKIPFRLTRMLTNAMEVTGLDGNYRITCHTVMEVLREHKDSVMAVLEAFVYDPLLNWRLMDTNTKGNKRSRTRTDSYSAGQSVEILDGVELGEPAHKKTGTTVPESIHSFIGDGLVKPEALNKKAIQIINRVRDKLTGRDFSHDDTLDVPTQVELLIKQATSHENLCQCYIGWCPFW
Sequence of PI3K-α (P42336 whole entry, species assumed): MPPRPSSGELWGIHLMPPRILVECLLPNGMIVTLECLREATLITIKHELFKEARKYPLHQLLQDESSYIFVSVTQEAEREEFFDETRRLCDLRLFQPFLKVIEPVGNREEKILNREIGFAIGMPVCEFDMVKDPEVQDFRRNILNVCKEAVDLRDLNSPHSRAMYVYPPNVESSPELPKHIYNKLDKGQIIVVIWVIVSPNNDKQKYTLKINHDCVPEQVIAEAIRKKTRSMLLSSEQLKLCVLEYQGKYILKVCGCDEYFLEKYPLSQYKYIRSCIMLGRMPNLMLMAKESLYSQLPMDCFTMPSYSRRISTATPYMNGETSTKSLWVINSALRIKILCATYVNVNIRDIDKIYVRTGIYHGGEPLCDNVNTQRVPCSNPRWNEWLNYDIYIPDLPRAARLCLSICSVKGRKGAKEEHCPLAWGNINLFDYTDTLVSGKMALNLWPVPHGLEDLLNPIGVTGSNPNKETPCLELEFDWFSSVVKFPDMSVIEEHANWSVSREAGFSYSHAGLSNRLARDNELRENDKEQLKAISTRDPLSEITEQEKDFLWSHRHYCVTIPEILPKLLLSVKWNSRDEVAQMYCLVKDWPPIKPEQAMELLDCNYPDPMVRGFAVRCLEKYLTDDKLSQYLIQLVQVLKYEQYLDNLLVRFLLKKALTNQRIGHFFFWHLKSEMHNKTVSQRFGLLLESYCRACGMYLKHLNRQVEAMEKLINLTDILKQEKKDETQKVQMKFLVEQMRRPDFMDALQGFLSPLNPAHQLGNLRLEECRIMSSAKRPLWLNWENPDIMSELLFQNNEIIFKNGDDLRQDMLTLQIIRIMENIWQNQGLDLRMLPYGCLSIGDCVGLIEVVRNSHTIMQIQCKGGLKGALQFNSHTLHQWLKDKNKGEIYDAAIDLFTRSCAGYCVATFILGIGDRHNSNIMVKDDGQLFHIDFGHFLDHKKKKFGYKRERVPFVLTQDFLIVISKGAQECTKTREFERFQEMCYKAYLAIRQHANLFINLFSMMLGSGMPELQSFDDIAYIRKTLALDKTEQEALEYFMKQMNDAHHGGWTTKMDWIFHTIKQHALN
Sequence of PI3K-α (P27986 whole entry partner, species assumed): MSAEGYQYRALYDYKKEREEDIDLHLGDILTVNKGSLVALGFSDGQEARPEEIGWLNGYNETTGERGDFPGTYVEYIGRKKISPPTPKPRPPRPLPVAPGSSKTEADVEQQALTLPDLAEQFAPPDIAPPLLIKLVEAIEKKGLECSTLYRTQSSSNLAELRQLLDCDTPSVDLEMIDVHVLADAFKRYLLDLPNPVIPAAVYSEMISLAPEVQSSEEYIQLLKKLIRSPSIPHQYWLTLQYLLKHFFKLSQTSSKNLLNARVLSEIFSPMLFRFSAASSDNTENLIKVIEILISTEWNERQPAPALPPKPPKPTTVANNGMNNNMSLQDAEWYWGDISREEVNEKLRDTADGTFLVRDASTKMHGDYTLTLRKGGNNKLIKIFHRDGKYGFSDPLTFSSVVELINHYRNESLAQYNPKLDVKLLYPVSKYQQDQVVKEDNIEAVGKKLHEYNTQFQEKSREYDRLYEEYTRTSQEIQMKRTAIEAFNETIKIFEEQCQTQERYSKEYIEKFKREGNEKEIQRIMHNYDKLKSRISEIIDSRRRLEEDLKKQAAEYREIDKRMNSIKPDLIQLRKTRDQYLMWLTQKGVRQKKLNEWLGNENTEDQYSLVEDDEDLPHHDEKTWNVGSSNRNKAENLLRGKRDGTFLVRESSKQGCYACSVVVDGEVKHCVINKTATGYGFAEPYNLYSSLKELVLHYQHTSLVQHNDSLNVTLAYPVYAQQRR

With `CCN1CCN(C(=O)c2ccc(NC(=O)Nc3ccc(-c4nc(N5CCOC[C@H]5C)nc(N5CCOC[C@@H]5C)n4)cc3)cc2)CC1` [Example 625, 1-{4-[(4-ethylpiperazin-1-yl)carbonyl]phenyl}-3-(4-{4-[(3R)-3-methylmorpholin-4-yl]-6-[(3S)-3-methylmorpholin-4-yl]-1,3,5-triazin-2-yl}phenyl)urea] as the compound, how does the IC50 [1] read?
The IC50 was 43 nM.

And the IC50 (Human mTOR (FLAG-TOR))?
Its IC50 is 3 nM.

And the IC50 (PI3K-α)?
Its IC50 is 16.5 nM.

And the IC50 ([2]; 72 h)?
Its IC50 is 12 nM.

What about the IC50 (PI3K-γ) of the same compound?
The IC50 was 102 nM.

Which results are given for `CCCCN1CCN(C(=O)c2ccc(NC(=O)Nc3ccc(-c4nc(N5CCOC[C@H]5C)nc(N5CCOC[C@@H]5C)n4)cc3)cc2)CC1` [Example 627, 1-{4-[(4-butylpiperazin-1-yl)carbonyl]phenyl}-3-(4-{4-[(3R)-3-methylmorpholin-4-yl]-6-[(3S)-3-methylmorpholin-4-yl]-1,3,5-triazin-2-yl}phenyl)urea]?
IC50 [1]: 55 nM; IC50 (Human mTOR (FLAG-TOR)): 2 nM; IC50 (PI3K-α): 18.5 nM; IC50 ([2]; 72 h): 16 nM; IC50 (PI3K-γ): 102 nM

How did the IC50 [1] turn out when `CCCCN1CCN(C(=O)c2ccc(NC(=O)Nc3ccc(-c4nc(N5CCOC[C@@H]5C)nc(N5CCOC[C@@H]5C)n4)cc3)cc2)CC1` [Example 629, 1-(4-{4,6-bis[(3S)-3-methylmorpholin-4-yl]-1,3,5-triazin-2-yl}phenyl)-3-{4-[(4-butylpiperazin-1-yl)carbonyl]phenyl}urea] was run?
The IC50 was 133 nM.

What about the IC50 (Human mTOR (FLAG-TOR)) of the same compound?
Its IC50 is 4 nM.

And the IC50 (PI3K-α)?
The IC50 was 26 nM.

What about the IC50 ([2]; 72 h) of the same compound?
The IC50 was 28 nM.

What about the IC50 (PI3K-γ) of the same compound?
Its IC50 is 95 nM.

With `CC(C)N1CCN(C(=O)c2ccc(NC(=O)Nc3ccc(-c4nc(N5CCOC[C@H]5C)nc(N5CCOC[C@@H]5C)n4)cc3)cc2)CC1` [Example 630, 1-(4-{[4-(1-methylethyl)piperazin-1-yl]carbonyl}phenyl)-3-(4-{4-[(3R)-3-methylmorpholin-4-yl]-6-[(3S)-3-methylmorpholin-4-yl]-1,3,5-triazin-2-yl}phenyl)urea] as the compound, how does the IC50 [1] read?
The IC50 was 23 nM.

What about the IC50 (Human mTOR (FLAG-TOR)) of the same compound?
The IC50 was 1 nM.

What about the IC50 (PI3K-α) of the same compound?
The IC50 was 13.5 nM.

And the IC50 ([2]; 72 h)?
Its IC50 is 5 nM.

What about the IC50 (PI3K-γ) of the same compound?
The IC50 was 84.5 nM.

What does the source list for `CC(C)CN1CCN(C(=O)c2ccc(NC(=O)Nc3ccc(-c4nc(N5CCOC[C@@H]5C)nc(N5CCOC[C@@H]5C)n4)cc3)cc2)CC1` [Example 631, 1-(4-{4,6-bis[(3S)-3-methylmorpholin-4-yl]-1,3,5-triazin-2-yl}phenyl)-3-(4-{[4-(2-methylpropyl)piperazin-1-yl]carbonyl}phenyl)urea]?
IC50 [1]: 120 nM; IC50 (Human mTOR (FLAG-TOR)): 4 nM; IC50 (PI3K-α): 28 nM; IC50 ([2]; 72 h): 28 nM; IC50 (PI3K-γ): 133 nM

`CCC(C)N1CCN(C(=O)c2ccc(NC(=O)Nc3ccc(-c4nc(N5CCOC[C@@H]5C)nc(N5CCOC[C@@H]5C)n4)cc3)cc2)CC1` (stereo partly drawn) [Example 632, 1-(4-{4,6-bis[(3S)-3-methylmorpholin-4-yl]-1,3,5-triazin-2-yl}phenyl)-3-(4-{[4-(1-methylpropyl)piperazin-1-yl]carbonyl}phenyl)urea] was tested. Which IC50 [1] did it give?
The IC50 was 38 nM.

And the IC50 (Human mTOR (FLAG-TOR))?
The IC50 was 1 nM.

What about the IC50 (PI3K-α) of the same compound?
Its IC50 is 15 nM.

And the IC50 ([2]; 72 h)?
Its IC50 is 9 nM.

And the IC50 (PI3K-γ)?
Its IC50 is 74.5 nM.

For `C[C@H]1COCCN1c1nc(-c2ccc(NC(=O)Nc3ccc(C(=O)NCCN4CCN(C)CC4)cc3)cc2)nc(N2CCOC[C@@H]2C)n1` [Example 633, 4-{[(4-{4,6-bis[(3S)-3-methylmorpholin-4-yl]-1,3,5-triazin-2-yl}phenyl)carbamoyl]amino}-N-[2-(4-methylpiperazin-1-yl)ethyl]benzamide], which IC50 [1] is on record?
The IC50 was 64 nM.

What about the IC50 (Human mTOR (FLAG-TOR)) of the same compound?
Its IC50 is 1 nM.

And the IC50 (PI3K-α)?
The IC50 was 11.5 nM.

And the IC50 ([2]; 72 h)?
The IC50 was 15 nM.

What about the IC50 (PI3K-γ) of the same compound?
Its IC50 is 175 nM.

Which results are given for `C[C@H]1COCCN1c1nc(-c2ccc(NC(=O)Nc3ccc(C(=O)N4CCCCC4)cc3)cc2)nc(N2CCOC[C@@H]2C)n1` [Example 637, 1-(4-{4,6-bis[(3S)-3-methylmorpholin-4-yl]-1,3,5-triazin-2-yl}phenyl)-3-[4-(piperidin-1-ylcarbonyl)phenyl]urea]?
IC50 [1]: 62 nM; IC50 (Human mTOR (FLAG-TOR)): 4 nM; IC50 (PI3K-α): 21.5 nM; IC50 ([2]; MDA-MB-361, 72 h): 26 nM; IC50 (PI3K-γ): 190 nM

Which IC50 [1] does the source give for `CCCN1CCN(C(=O)c2ccc(NC(=O)Nc3ccc(-c4nc(N5CCOC[C@@H]5C)nc(N5CCOC[C@@H]5C)n4)cc3)cc2)CC1` [Example 638, 1-(4-{4,6-bis[(3S)-3-methylmorpholin-4-yl]-1,3,5-triazin-2-yl}phenyl)-3-{4-[(4-propylpiperazin-1-yl)carbonyl]phenyl}urea] here?
The IC50 was 44 nM.

And the IC50 (Human mTOR (FLAG-TOR))?
The IC50 was 2 nM.

And the IC50 (PI3K-α)?
The IC50 was 16 nM.

And the IC50 ([2]; 72 h)?
The IC50 was 9 nM.

And the IC50 (PI3K-γ)?
Its IC50 is 114 nM.

How did the IC50 [1] turn out when `COCCNC(=O)c1ccc(NC(=O)Nc2ccc(-c3nc(N4CCOC[C@@H]4C)nc(N4CCOC[C@@H]4C)n3)cc2)cc1` [Example 639, 4-{[(4-{4,6-bis[(3S)-3-methylmorpholin-4-yl]-1,3,5-triazin-2-yl}phenyl)carbamoyl]amino}-N-(2-methoxyethyl)benzamide] was run?
The IC50 was 27 nM.

What about the IC50 (Human mTOR (FLAG-TOR)) of the same compound?
The IC50 was 1 nM.

And the IC50 (PI3K-α)?
The IC50 was 14.5 nM.

And the IC50 ([2]; 72 h)?
Its IC50 is 16 nM.

What about the IC50 (PI3K-γ) of the same compound?
The IC50 was 123 nM.

Which IC50 [1] does the source give for `CN1CCN(C(=O)c2ccc(NC(=O)Nc3ccc(-c4nc(N5CCOCC5)nc(N5CCN(C(=O)N(C)C)CC5)n4)cc3)cc2)CC1` [Example 643, N,N-dimethyl-4-(4-{4-[({4-[(4-methylpiperazin-1-yl)carbonyl]phenyl}carbamoyl)amino]phenyl}-6-morpholin-4-yl-1,3,5-triazin-2-yl)piperazine-1-carboxamide] here?
The IC50 was 59 nM.

What about the IC50 (Human mTOR (FLAG-TOR)) of the same compound?
Its IC50 is 7 nM.

And the IC50 (PI3K-α)?
The IC50 was 6.2 nM.

And the IC50 ([2]; MDA-MB-361, 72 h)?
Its IC50 is 19 nM.

What about the IC50 (PI3K-γ) of the same compound?
Its IC50 is 42.5 nM.

How did the IC50 [1] turn out when `CN(C)C(=O)N1CCN(c2nc(-c3ccc(NC(=O)Nc4ccc(C(=O)Nc5ccnnc5)cc4)cc3)nc(N3CCOCC3)n2)CC1` [Example 644, N,N-dimethyl-4-{4-morpholin-4-yl-6-[4-({[4-(pyridazin-4-ylcarbamoyl)phenyl]carbamoyl}amino)phenyl]-1,3,5-triazin-2-yl}piperazine-1-carboxamide] was run?
The IC50 was 185 nM.

What about the IC50 (Human mTOR (FLAG-TOR)) of the same compound?
Its IC50 is 1 nM.

And the IC50 (PI3K-α)?
Its IC50 is 7.8 nM.

And the IC50 ([2]; 72 h)?
Its IC50 is 51 nM.

What about the IC50 (PI3K-γ) of the same compound?
Its IC50 is 59.5 nM.

What does the source list for `CN(C)C(=O)N1CCN(c2nc(-c3ccc(NC(=O)Nc4ccc(C(=O)O)cc4)cc3)nc(N3CCOCC3)n2)CC1` [Example 646, 4-{[(4-{4-[4-(dimethylcarbamoyl)piperazin-1-yl]-6-morpholin-4-yl-1,3,5-triazin-2-yl}phenyl)carbamoyl]amino}benzoic acid]?
IC50 [1]: 223 nM; IC50 (Human mTOR (FLAG-TOR)): 6 nM; IC50 (PI3K-α): 23 nM; IC50 ([2]; MDA-MB-361, 72 h): 32 nM; IC50 (PI3K-γ): 85.5 nM

How did the IC50 [1] turn out when `COCCNC(=O)c1ccc(NC(=O)Nc2ccc(-c3nc(N4CCOCC4)nc(N4CCN(C(=O)N(C)C)CC4)n3)cc2)cc1` [Example 647, 4-(4-{4-[({4-[(2-methoxyethyl)carbamoyl]phenyl}carbamoyl)amino]phenyl}-6-morpholin-4-yl-1,3,5-triazin-2-yl)-N,N-dimethylpiperazine-1-carboxamide] was run?
Its IC50 is 136 nM.

What about the IC50 (Human mTOR (FLAG-TOR)) of the same compound?
The IC50 was 3 nM.

And the IC50 (PI3K-α)?
The IC50 was 24.3 nM.

And the IC50 ([2]; 72 h)?
Its IC50 is 46 nM.

And the IC50 (PI3K-γ)?
Its IC50 is 107 nM.

`CN(C)CCN(C)C(=O)c1ccc(NC(=O)Nc2ccc(-c3nc(N4CCOCC4)nc(N4CCN(C(=O)N(C)C)CC4)n3)cc2)cc1` [Example 648, 4-[4-(4-{[(4-{[2-(dimethylamino)ethyl](methyl)carbamoyl}phenyl)carbamoyl]amino}phenyl)-6-morpholin-4-yl-1,3,5-triazin-2-yl]-N,N-dimethylpiperazine-1-carboxamide] was tested. Which IC50 [1] did it give?
The IC50 was 34 nM.

What about the IC50 (Human mTOR (FLAG-TOR)) of the same compound?
Its IC50 is 3 nM.

What about the IC50 (PI3K-α) of the same compound?
Its IC50 is 2 nM.

What about the IC50 ([2]; 72 h) of the same compound?
The IC50 was 12 nM.

And the IC50 (PI3K-γ)?
The IC50 was 27 nM.
